Assay results taken from patent US20220378773A1, “METHODS FOR TREATING LEUKEMIA AND USE OF A LEUKEMIC STEM CELL SIGNATURE TO PREDICT CLINICAL SENSITIVITY TO THERAPIES” (CELGENE CORPORATION, priority 2019, published 2022).

Legend:
[1] = system: normal cord blood-derived human graft; design: species or system NOD/SCID mice; details: mouse, in vivo
Experimental: Normal cord blood experiment was carried out similar to what has been described as above but using CD34+ cells isolated from normal cord blood. Two or three normal donors were pulled together to generate enough cells for each of the CB engraftments, termed CB1 and CB2.
Compound D toxicity on normal hematopoietic cells was investigated using CB samples. Mice were transplanted with two different CB samples (CB1 and CB2) and dosed with 2.5 mg/kg Compound D or vehicle control BID intraperitoneally. Flow cytometric analyses from a representative mouse from the vehicle- and Compound D-treated groups are shown in FIG. 8A and FIG. 8B, respectively.

AML graft = test: In vivo apoptosis and cell death (propidium iodide staining); design: species or system NOD/SCID mice; details: after 4 weeks treatment
Excerpt: After treatment finished, cells were harvested from both injected right femur (RF) and non-injected bone marrow (BM, including left femur, 2 tibias), and stained with human antibodies to assess the engraftment levels of AML. Antibodies used for staining included: Mouse anti-human CD45-APC, CD15-FITC, CD34-APC7, CD38-PC7 (BD Biosciences, USA), CD14-PE, CD33-PC5 (Beckman Coulter, USA), CD19-V450, CD19-AF700, CD11b-APC7, CD34-BV421 (BD Biosciences, USA), and propidium iodide (PI; Invitrogen, USA).
Following 4 weeks Compound D treatment, harvested cells were stained with propidium iodide (PI) for detecting apoptotic and dead leukemia cells. […] To determine whether GSPT1 can also be degraded by Compound D administration in vivo, leukemia cells were harvested after 3 doses of Compound D treatment for intracellular flow cytometry to assess the levels of GSPT1 in both injected RF and non-injected BM. […] It seems that Compound D degraded GSPT1 more profoundly in the injected RF than in non-injected BM. More samples had lesser GSPT1 reduction in the non-injected BM than in RF. Perhaps this reflects differences in the niche or blood supply between these sites; intrafemoral (IF) injection involves reaming out the femoral cavity prior to cell injection. […]

[2] = system: AML graft (human CD45+CD33+ cells); test: AML xenograft efficacy, 2.5 mg/kg IP twice daily; assay type: in vivo, NOD/SCID mice; details: AML Patient 90668; 500,000 cells per mouse; dosing from Day 21

## O=C1CCC(N2Cc3cc(CNC(=O)C(F)(F)c4ccc(Cl)cc4)ccc3C2=O)C(=O)N1 (stereo not shown) [Compound D, 2-(4-chlorophenyl)-N-((2-(2,6-dioxopiperidin-3-yl)-1-oxoisoindolin-5-yl)methyl)-2,2-difluoroacetamide]
[1]; NOD/SCID, 4 weeks
  human graft remaining after treatment: 5-10%
  percentage of CD34+ cells: did not decrease the percentage of CD34+ cells
[1]
  CD34+CD19+ primitive lymphoid cells: significantly decreased
  CD34+CD33+ primitive myeloid cells: not targeted
  absolute number of CD34+ cells: significantly reduced
  number of CD19+ lymphocytes: significantly decreased
  percentages of CD34+CD38− primary cells: not specifically targeted
  proportion of CD33+ myeloid cells: increased
AML graft
  number of PI+ events in mouse bone marrow: significantly increased
[2]
  survival: did not improve survival
